# Patent publication US20170037028A1 (BAYER PHARMA AKTIENGESELLSCHAFT, priority 2013, published 2017)
# pIC50: −log10 of the molar value.
# Target: T1, GLUT1 (Homo sapiens, UniProt P11166)
# T1 sequence (P11166 1-492): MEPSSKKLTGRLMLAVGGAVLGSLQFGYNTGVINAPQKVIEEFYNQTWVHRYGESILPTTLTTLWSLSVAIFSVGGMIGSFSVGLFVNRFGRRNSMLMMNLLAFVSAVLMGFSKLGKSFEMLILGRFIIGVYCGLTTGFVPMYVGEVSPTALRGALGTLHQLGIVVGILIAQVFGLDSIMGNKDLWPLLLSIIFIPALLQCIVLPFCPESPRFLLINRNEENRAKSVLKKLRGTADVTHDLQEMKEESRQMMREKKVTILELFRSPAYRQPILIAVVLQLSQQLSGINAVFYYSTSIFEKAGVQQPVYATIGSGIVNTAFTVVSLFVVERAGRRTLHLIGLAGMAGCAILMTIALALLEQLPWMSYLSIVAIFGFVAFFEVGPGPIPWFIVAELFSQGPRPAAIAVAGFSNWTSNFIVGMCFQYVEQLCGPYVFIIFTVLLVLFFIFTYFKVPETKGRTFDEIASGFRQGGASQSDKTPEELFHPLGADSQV
# Assay: Indirect measurement of GLUT1 activity by quantification of intracellular ATP levels (glucose induced ATP increase)
# Type: cell-based
# Set-up: endogenous in cells; host or cells: DLD1 or CHO-K1
# Settings: DLD1 cells; 0.1 mM glucose, 1 μM Rotenone, 15 min; CellTiter-Glo ATP readout; IC50 values standardized to cytochalasin B IC50 values; read-out: IC50 regarding glucose induced ATP increase (GLUT1 inhibition)
# In short: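 DLD1 or CHO-K1 cells were starved overnight in glucose-free medium with 1% FCS, then combined with an oxidative phosphorylation inhibitor. GLUT1 activity was read as glucose-induced ATP increase, GLUT2 as fructose-induced. Intracellular ATP was quantified by CellTiter-Glo luminescence.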
row,SMILES,pIC50
1,Cc1c(NC(=O)c2cc(C(N)=O)nc3cc(F)ccc23)c(C(F)(F)F)nn1Cc1cccc(C#N)c1 [Example 1578],7.60

# Same assay, conditions: read-out: IC50 regarding glucose induced ATP increase (GLUT1 inhibition)
row,SMILES,pIC50
1,CCc1cc(Cn2nc(C)c(NC(=O)c3cc(C(N)=O)nc4cc(F)ccc34)c2C)on1 [Example 1532],7.79
2,CCS(=O)(=O)N1CCC(Cn2nc(C)c(NC(=O)c3cc(C(F)(F)F)nc4ccc(Br)cc34)c2C)CC1 [Example 1533],6.77
3,CCS(=O)(=O)N1CCC(Cn2nc(C)c(NC(=O)c3cc(C(N)=O)nc4cc(F)ccc34)c2C)CC1 [Example 1534],7.71
4,CCc1nc(Cn2nc(C(F)(F)F)c(NC(=O)c3cc(C(N)=O)nc4ccccc34)c2C)no1 [Example 1535],7.65
5,CCc1noc(Cn2nc(C(F)(F)F)c(NC(=O)c3cc(C(N)=O)nc4ccccc34)c2C)n1 [Example 1536],7.10
6,CCc1noc(Cn2nc(C(F)(F)F)c(NC(=O)c3cc(C(N)=O)nc4cc(F)ccc34)c2C)n1 [Example 1537],6.73
7,Cc1cc(Cn2nc(C(F)(F)F)c(NC(=O)c3cc(C(N)=O)nc4ccccc34)c2C)no1 [Example 1538],7.14
8,Cc1c(NC(=O)c2cc(C(N)=O)nc3ccccc23)c(C(F)(F)F)nn1Cc1ncco1 [Example 1540],6.56
9,Cc1cc(Cn2nc(C(F)(F)F)c(NC(=O)c3cc(C(N)=O)nc4ccccc34)c2C)on1 [Example 1543],6.95
10,CCS(=O)(=O)N1CCC(Cn2nc(C(F)(F)F)c(NC(=O)c3cc(C(N)=O)nc4cc(F)ccc34)c2C)CC1 [Example 1545],7.37
11,CCS(=O)(=O)N1CCC(Cn2nc(C(F)(F)F)c(NC(=O)c3cc(C(N)=O)nc4ccccc34)c2C)CC1 [Example 1546],7.47
12,CCc1nc(Cn2nc(C(F)(F)F)c(NC(=O)c3cc(C(N)=O)nc4cc(F)ccc34)c2C)no1 [Example 1548],7.58
13,Cc1c(NC(=O)c2cc(C(N)=O)nc3ccccc23)c(C(F)(F)F)nn1Cc1cc(C2CC2)on1 [Example 1549],7.87
14,Cc1c(NC(=O)c2cc(C(N)=O)nc3cc(F)ccc23)c(C(F)(F)F)nn1Cc1cc(C2CC2)on1 [Example 1550],7.46
15,Cc1c(NC(=O)c2cc(C(N)=O)nc3ccccc23)c(C(F)(F)F)nn1Cc1cc(C(C)C)no1 [Example 1552],6.71
16,Cc1c(NC(=O)c2cc(C(N)=O)nc3cc(F)ccc23)c(C(F)(F)F)nn1Cc1cc(C(C)C)no1 [Example 1553],6.80
17,CCc1cc(Cn2nc(C(F)(F)F)c(NC(=O)c3cc(C(N)=O)nc4ccccc34)c2C)on1 [Example 1555],7.74
18,CCc1cc(Cn2nc(C(F)(F)F)c(NC(=O)c3cc(C(N)=O)nc4cc(F)ccc34)c2C)on1 [Example 1556],7.38
19,CNC(=O)c1nc(Cn2nc(C(F)(F)F)c(NC(=O)c3cc(C(N)=O)nc4ccccc34)c2C)no1 [Example 1557],7.27
20,CNC(=O)c1nc(Cn2nc(C(F)(F)F)c(NC(=O)c3cc(C(N)=O)nc4cc(F)ccc34)c2C)no1 [Example 1559],7.14
21,Cc1cc(Cn2nc(C)c(NC(=O)c3cc(C(N)=O)nc4ccccc34)c2C)on1 [Example 1560],7.40

row,SMILES,pIC50
1,Cc1nn(Cc2cc(C(C)C)no2)c(C)c1NC(=O)c1cc(C(N)=O)nc2ccccc12 [Example 1562],7.25
2,Cc1nn(Cc2cc(C(C)C)no2)c(C)c1NC(=O)c1cc(C(N)=O)nc2cc(F)ccc12 [Example 1563],7.45
3,Cc1c(NC(=O)c2cc(C(=O)N3CCOCC3)nc3ccc(F)cc23)c(C(F)(F)F)nn1Cc1ccc(C#N)cc1 [Example 1564],6.95
4,Cc1c(NC(=O)c2cc(C(N)=O)nc3cccc(O)c23)c(C(F)(F)F)nn1Cc1ccc(C#N)cc1 [Example 1565],7.68
5,Cc1nn(Cc2cc(C#N)no2)c(C)c1NC(=O)c1cc(C(N)=O)nc2cc(F)ccc12 [Example 1566],7.85
6,Cc1nn(Cc2cnn(C)c2C)c(C)c1NC(=O)c1cc(C(N)=O)nc2ccccc12 [Example 1567],7.07
7,Cc1nc(Cn2nc(C)c(NC(=O)c3cc(C(N)=O)nc4ccccc34)c2C)cs1 [Example 1568],7.56
8,Cc1nn(Cc2ccn(C)n2)c(C)c1NC(=O)c1cc(C(N)=O)nc2ccccc12 [Example 1569],7.17
9,CCc1noc(Cn2nc(C)c(NC(=O)c3cc(C(F)(F)F)nc4ccc(Br)cc34)c2C)n1 [Example 1570],7.32
10,Cc1c(NC(=O)c2cc(S(N)(=O)=O)nc3ccccc23)c(C(F)(F)F)nn1Cc1ccc(C#N)cc1 [Example 1572],6.66
11,Cc1nn(Cc2ccc(C#N)cc2)c(C)c1NC(=O)c1cc(S(N)(=O)=O)nc2ccccc12 [Example 1573],6.38
12,CNS(=O)(=O)c1cc(C(=O)Nc2c(C(F)(F)F)nn(Cc3ccc(C#N)cc3)c2C)c2ccccc2n1 [Example 1574],7.31
13,CNS(=O)(=O)c1cc(C(=O)Nc2c(C)nn(Cc3ccc(C#N)cc3)c2C)c2ccccc2n1 [Example 1575],7.42
14,Cc1c(NC(=O)c2cc(S(=O)(=O)N(C)C)nc3ccccc23)c(C(F)(F)F)nn1Cc1ccc(C#N)cc1 [Example 1576],7.69
15,Cc1nn(Cc2ccc(C#N)cc2)c(C)c1NC(=O)c1cc(S(=O)(=O)N(C)C)nc2ccccc12 [Example 1577],8.01
16,Cc1c(NC(=O)c2cc(C(N)=O)nc3cccc(F)c23)c(C(F)(F)F)nn1Cc1ccc(C(F)(F)F)cc1 [Example 1591],7.78
17,Cc1c(NC(=O)c2cc(C(N)=O)nc3ccccc23)c(C(F)(F)F)nn1Cc1ccc(CC#N)cc1 [Example 1592],8.89
18,Cc1c(NC(=O)c2cc(C(N)=O)nc3cccc(F)c23)c(C(F)(F)F)nn1Cc1ccc(CC#N)cc1 [Example 1593],8.89
19,Cc1c(NC(=O)c2cc(C(N)=O)nc3ccc(Br)cc23)c(C(F)(F)F)nn1Cc1ccc(CC#N)cc1 [Example 1595],8.80
20,Cc1c(NC(=O)c2cc(C(N)=O)nc3cc(F)ccc23)c(C(F)(F)F)nn1Cc1ccc(C(C)(C)C#N)cc1 [Example 1596],7.17

# Second part, the compound after the results:
row,pIC50,SMILES
1,7.33,Cc1cc(Cn2nc(C(F)(F)F)c(NC(=O)c3cc(C(N)=O)nc4cc(F)ccc34)c2C)no1 [Example 1539]
2,7.81,Cc1cc(Cn2nc(C)c(NC(=O)c3cc(C(N)=O)nc4cc(F)ccc34)c2C)no1 [Example 1541]
3,7.07,Cc1cc(Cn2nc(C(F)(F)F)c(NC(=O)c3cc(C(N)=O)nc4cc(F)ccc34)c2C)on1 [Example 1542]
4,7.80,CCc1noc(Cn2nc(C(F)(F)F)c(NC(=O)c3cc(C(N)=O)nc4cc(F)c(Cl)cc34)c2C)n1 [Example 1544]
5,7.62,Cc1c(NC(=O)c2cc(C(N)=O)nc3cc(F)c(Cl)cc23)c(C(F)(F)F)nn1Cc1ncco1 [Example 1547]
6,7.95,Cc1c(NC(=O)c2cc(C(N)=O)nc3cc(F)c(Cl)cc23)c(C(F)(F)F)nn1Cc1cc(C2CC2)on1 [Example 1551]
7,6.94,Cc1c(NC(=O)c2cc(C(N)=O)nc3cc(F)c(Cl)cc23)c(C(F)(F)F)nn1Cc1cc(C(C)C)no1 [Example 1554]
8,7.98,Cc1cc(Cn2nc(C)c(NC(=O)c3cc(C(N)=O)nc4cc(F)ccc34)c2C)on1 [Example 1561]
9,7.63,Cc1c(NC(=O)c2cc(C(N)=O)nc3ccccc23)c(C(F)(F)F)nn1Cc1cccc(C#N)c1 [Example 1579]
10,8.74,Cc1c(NC(=O)c2cc(C(N)=O)nc3cc(F)c(Cl)cc23)c(C(F)(F)F)nn1Cc1cccc(C#N)c1 [Example 1580]
11,7.57,Cc1c(NC(=O)c2cc(C(N)=O)nc3cccc(F)c23)c(C(F)(F)F)nn1Cc1cccc(C#N)c1 [Example 1581]
12,8.41,COCc1ccc(Cn2nc(C)c(NC(=O)c3cc(C(N)=O)nc4cc(F)ccc34)c2C)cc1 [Example 1582]
13,7.94,Cc1nn(Cc2cccc(OC(F)(F)F)c2)c(C)c1NC(=O)c1cc(C(N)=O)nc2cc(F)c(Cl)cc12 [Example 1583]
14,6.26,Cc1c(NC(=O)c2cc(C(N)=O)nc3cccc(F)c23)c(C(F)(F)F)nn1Cc1cccc(OC(F)(F)F)c1 [Example 1584]
15,7.34,Cc1nn(Cc2cccc(OC(F)(F)F)c2)c(C)c1NC(=O)c1cc(C(N)=O)nc2ccccc12 [Example 1585]
16,7.43,Cc1nn(Cc2cccc(OC(F)(F)F)c2)c(C)c1NC(=O)c1cc(C(N)=O)nc2cc(F)ccc12 [Example 1586]
17,7.38,Cc1nn(Cc2cccc(OC(F)(F)F)c2)c(C)c1NC(=O)c1cc(C(N)=O)nc2cccc(F)c12 [Example 1587]
18,6.76,COc1ccccc1Cn1nc(C(F)(F)F)c(NC(=O)c2cc(C(N)=O)nc3cc(F)ccc23)c1C [Example 1588]
19,7.86,Cc1c(NC(=O)c2cc(C(N)=O)nc3cc(F)c(Cl)cc23)c(C(F)(F)F)nn1Cc1ccc(C(F)(F)F)cc1 [Example 1589]
20,8.01,Cc1c(NC(=O)c2cc(C(N)=O)nc3cc(F)ccc23)c(C(F)(F)F)nn1Cc1ccc(C(F)(F)F)cc1 [Example 1590]
21,8.96,Cc1c(NC(=O)c2cc(C(N)=O)nc3cc(F)c(Cl)cc23)c(C(F)(F)F)nn1Cc1ccc(CC#N)cc1 [Example 1594]
